In ChEMBL document CHEMBL1133576, “Structural basis of the thrombin selectivity of a ligand that contains the constrained arginine mimic (2S)-2-amino-(3S)-3-(1-carbamimidoyl- piperidin-3-yl)-propanoic acid at P1” (J Med Chem, 2000):

Legend:
Serine protease 1 = Serine protease 1 (Homo sapiens, UniProt P07477); assay: Inhibitory activity towards Trypsin
Prothrombin = Prothrombin (Homo sapiens, UniProt P00734); assay: Inhibitory activity towards Thrombin

Chain of Serine protease 1 (P07477 whole entry): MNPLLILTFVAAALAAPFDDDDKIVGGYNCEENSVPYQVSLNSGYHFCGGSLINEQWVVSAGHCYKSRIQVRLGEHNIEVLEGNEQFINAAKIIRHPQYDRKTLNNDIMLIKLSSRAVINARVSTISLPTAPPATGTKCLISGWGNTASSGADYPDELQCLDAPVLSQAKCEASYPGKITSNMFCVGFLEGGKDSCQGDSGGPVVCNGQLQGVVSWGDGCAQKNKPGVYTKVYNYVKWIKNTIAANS

| SMILES | Ki (Serine protease 1) [nM] | Ki (Prothrombin) [nM] | IC50 (Serine protease 1) [nM] |
| --- | --- | --- | --- |
| N=C(N)N1CCCC(C[C@H](NC(=O)[C@@H]2CC[C@H]3CN(C(=O)CCc4ccccc4)CC(=O)N32)C(=O)c2nccs2)C1 (some centres undefined) | 4000 | 3.5 | – |
| N=C(N)NCCC[C@H](NC(=O)[C@@H]1CC[C@H]2CN(C(=O)CCc3ccccc3)CC(=O)N21)C(=O)c1nccs1 | – | 0.6 | 1 |
